In patent publication US20160058829A1, “ANTI-FIBROTIC PEPTIDES AND THEIR USE IN METHODS FOR TREATING DISEASES AND DISORDERS CHARACTERIZED BY FIBROSIS” (Thrasos Innovation, Inc., priority 2011, published 2016):
Positions of bridges follow the written chain, without caps; N, C: chain ends. Non-standard residues stand in square brackets, D forms with d. *: point of attachment. Dap = NC[C@H](N)C(=O)O; For = O=C*

Tested on: human proximal tubule epithelial cells (HK2)
Assay: D-glucose-induced EMT assay, E-cadherin immunofluorescence with colorimetric image analysis
Assay type: cell-based
Details: for Percent inhibition of D-glucose-induced EMT: 0% = D-glucose untreated, 100% = media without D-glucose
Description: Chronic hyperglycemia is a known cause of renal fibrosis in type 2 diabetes. The assay in this example induces the transdifferentiation from the epithelial to the mesenchymal phenotype (EMT) in human proximal tubule epithelial cells (HK2) by exposing them to high levels of D-glucose (100 mM and 200 mM). […] Exposure to 100 mM D-glucose results in the loss of E-cadherine expression as evidenced by the loss of the fluorescene signal. Using this assay test compounds are evaluated based on their ability to inhibit the EMT processes in the presence of high levels of D-glucose. FIGS. 4-16 are fluorescence micrographs of HK2 cells exposed to 100 mM D-glucose and 100 uM of SEQ IS NOs 1 through 11, respectively. Note that all but SEQ ID NOs 10 and 11 were able to preserve the epithelial phenotype (i.e., inhibit the EMT).
Results are provided in the context of FIG. 1 and Table 3, below. In Table 3 below, compound response is scored using image analysis as described herein in the method of Methods and Materials, part C. A 0% response corresponds to the signal for 100 mM (or 200 mM) D-glucose (untreated) while the 100% response corresponds to the signal for media in the absence of D-glucose.
It has been shown that transdifferentiation of proximal tubular epithelial cells is a critical step in the development of renal fibrosis, and that this is associated with a loss of the epithelial phenotypic marker, E-cadherin expression. This provides the basis for the development of a cell-based screening assay in which high concentrations of D-Glucose (50-100 mM) are used to induce a loss of E-cadherin expression in human renal proximal tubular epithelial (HK-2) cells, and compounds are tested for their ability to reverse the loss E-cadherin expression.
Materials: • Human proximal tubular epithelial cells, HK-2 (ATCC #CRL-2190) • Serum-free keratinocyte medium (GIBCO #17005-042, K-SFM) • Epidermal growth factor (EGF: 5 ng/mL) • Bovine pituitary extract (BPE: 40 ug/mL) • Primary antibody, Mouse IgG anti-E-cadherin (R&D Systems # MAB1838) • BSA [Sigma #A7030] • secondary antibody, FITC-conjugated Goat anti-mouse IgG (Fab2) fragment (Sigma-Aldrich # F-2653) • Paraformaldehyde (10%)) • Triton X-100 (Sigma # T-9284) • PBS (Fisher Scientific #BP399-1) • D-PBS (Invitrogen #14190-144) • Polypropylene tips (Axygen, Inc. 0.5-10 uL, cat # T-300-L-R; 1-200 uL, Cat # T-200-L-R; 1-1000 uL, Cat # T-1000-C-L-R) • 50 mL polypropylene culture tubes (Fisher Scientific, cat #06-443-18) • 24-well Coster cell culture plates (Fisher Scientific #07-200-84)
Reagents & Test Samples: • Positive control: BMP-7, assayed at concentrations 0.1 and 1 ug/mL • Test compounds (peptides): each tested at final concentrations 100 uM and 200 uM.
Assay Procedure for Cell Culture Assay: • Run assay in 24-well culture plates. • Seed HK-2 cells at a density between 25,000 and 30,000 cells per well in lmL K-SFM medium with supplements added (growth medium) • Incubate HK-2 cells for 24 hours at 37° C., and let cells attach the plate • Next Day afternoon, change the medium with K-SFM medium with no added supplements (serum free medium) in all wells except the first two control wells. • Continue incubating HK-2 cells overnight at 37° C. • Next Day, aspirate the medium from all wells. Incubate the cells in growth medium (first two control wells) or expose them to test compounds for 2 hours at 37° C. Final concentrations of each Test compound are 100 and 200 uM. BMP-7 serves as a positive control in the assay. • After incubation, add D-glucose to all wells except first two control wells. Final concentrations of D-Glucose are 50 and 100 mM. • Incubate HK-2 cells for 60 hours at 37° C. • Aspirate the medium from all wells. To the wells, add pre-warmed growth medium or serum free medium containing D-glucose alone or D-glucose and test compound or D-glucose and BMP-7. Final concentrations of D-Glucose and Test compound are the same as above. • Continue incubating HK-2 cells for 24 hours at 37° C. […]

9 (H-[Dap]YYDNSSSVLDKRYRS-OH; SMILES CC(C)C[C@H](NC(=O)[C@@H](NC(=O)[C@H](CO)NC(=O)[C@H](CO)NC(=O)[C@H](CO)NC(=O)[C@H](CC(N)=O)NC(=O)[C@H](CC(=O)O)NC(=O)[C@H](Cc1ccc(O)cc1)NC(=O)[C@H](Cc1ccc(O)cc1)NC(=O)[C@@H](N)CN)C(C)C)C(=O)N[C@@H](CC(=O)O)C(=O)N[C@@H](CCCCN)C(=O)N[C@@H](CCCNC(=N)N)C(=O)N[C@@H](Cc1ccc(O)cc1)C(=O)N[C@@H](CCCNC(=N)N)C(=O)N[C@@H](CO)C(=O)O) [compound 9]
Percent inhibition of D-glucose-induced EMT (100 uM peptide): 83%
Percent inhibition of D-glucose-induced EMT (200 uM peptide): 125%

4 (H-CYYDNSSSVLCKRYRS-OH; disulfide 1-11; not fully specified (residue 14)) [compound 4]
Percent inhibition of D-glucose-induced EMT (100 uM peptide): 99%
Percent inhibition of D-glucose-induced EMT (200 uM peptide): 130%

(H)-CYFNDSSQVLCKRYRS-(OH) (H-CYFNDSSQVLCKRYRS-OH; disulfide 1-11; SMILES CC(C)C[C@@H]1NC(=O)[C@H](C(C)C)NC(=O)[C@H](CCC(N)=O)NC(=O)[C@H](CO)NC(=O)[C@H](CO)NC(=O)[C@H](CC(=O)O)NC(=O)[C@H](CC(N)=O)NC(=O)[C@H](Cc2ccccc2)NC(=O)[C@H](Cc2ccc(O)cc2)NC(=O)[C@@H](N)CSSC[C@@H](C(=O)N[C@@H](CCCCN)C(=O)N[C@@H](CCCNC(=N)N)C(=O)N[C@@H](Cc2ccc(O)cc2)C(=O)N[C@@H](CCCNC(=N)N)C(=O)N[C@@H](CO)C(=O)O)NC1=O) [SEQ ID NO: 10]
preservation of the epithelial phenotype (inhibition of EMT), anti-fibrotic effect (HK2 cells, high D-glucose): very weak anti-fibrotic effect

10 (H-CYFNDSSQVLCKRYRS-OH; disulfide 1-11; SMILES CC(C)C[C@@H]1NC(=O)[C@H](C(C)C)NC(=O)[C@H](CCC(N)=O)NC(=O)[C@H](CO)NC(=O)[C@H](CO)NC(=O)[C@H](CC(=O)O)NC(=O)[C@H](CC(N)=O)NC(=O)[C@H](Cc2ccccc2)NC(=O)[C@H](Cc2ccc(O)cc2)NC(=O)[C@@H](N)CSSC[C@@H](C(=O)N[C@@H](CCCCN)C(=O)N[C@@H](CCCNC(=N)N)C(=O)N[C@@H](Cc2ccc(O)cc2)C(=O)N[C@@H](CCCNC(=N)N)C(=O)N[C@@H](CO)C(=O)O)NC1=O) [compound 10]
Percent inhibition of D-glucose-induced EMT (100 uM peptide): 20%
Percent inhibition of D-glucose-induced EMT (200 uM peptide): 17%

7 (Ac-CYYDNSSSVLCKRYRS-OH; disulfide 1-11; SMILES CC(=O)N[C@H]1CSSC[C@@H](C(=O)N[C@@H](CCCCN)C(=O)N[C@@H](CCCNC(=N)N)C(=O)N[C@@H](Cc2ccc(O)cc2)C(=O)N[C@@H](CCCNC(=N)N)C(=O)N[C@@H](CO)C(=O)O)NC(=O)[C@H](CC(C)C)NC(=O)[C@H](C(C)C)NC(=O)[C@H](CO)NC(=O)[C@H](CO)NC(=O)[C@H](CO)NC(=O)[C@H](CC(N)=O)NC(=O)[C@H](CC(=O)O)NC(=O)[C@H](Cc2ccc(O)cc2)NC(=O)[C@H](Cc2ccc(O)cc2)NC1=O) [compound 7]
Percent inhibition of D-glucose-induced EMT (100 uM peptide): 65%
Percent inhibition of D-glucose-induced EMT (200 uM peptide): 103%

5 (H-CYYDNSSSVLCKRYRS-OH; disulfide 1-11; SMILES CC(C)C[C@@H]1NC(=O)[C@H](C(C)C)NC(=O)[C@H](CO)NC(=O)[C@H](CO)NC(=O)[C@H](CO)NC(=O)[C@H](CC(N)=O)NC(=O)[C@H](CC(=O)O)NC(=O)[C@H](Cc2ccc(O)cc2)NC(=O)[C@H](Cc2ccc(O)cc2)NC(=O)[C@@H](N)CSSC[C@@H](C(=O)N[C@@H](CCCCN)C(=O)N[C@@H](CCCNC(=N)N)C(=O)N[C@@H](Cc2ccc(O)cc2)C(=O)N[C@@H](CCCNC(=N)N)C(=O)N[C@@H](CO)C(=O)O)NC1=O) [compound 5]
Percent inhibition of D-glucose-induced EMT (100 uM peptide): 33%
Percent inhibition of D-glucose-induced EMT (200 uM peptide): 84%

1 (H-CYFDDSSNVLCKKYRS-OH; disulfide 1-11; SMILES CC(C)C[C@@H]1NC(=O)[C@H](C(C)C)NC(=O)[C@H](CC(N)=O)NC(=O)[C@H](CO)NC(=O)[C@H](CO)NC(=O)[C@H](CC(=O)O)NC(=O)[C@H](CC(=O)O)NC(=O)[C@H](Cc2ccccc2)NC(=O)[C@H](Cc2ccc(O)cc2)NC(=O)[C@@H](N)CSSC[C@@H](C(=O)N[C@@H](CCCCN)C(=O)N[C@@H](CCCCN)C(=O)N[C@@H](Cc2ccc(O)cc2)C(=O)N[C@@H](CCCNC(=N)N)C(=O)N[C@@H](CO)C(=O)O)NC1=O) [compound 1]
Percent inhibition of D-glucose-induced EMT (100 uM peptide): 125%
Percent inhibition of D-glucose-induced EMT (200 uM peptide): 98%

2 (H-DYFDDSSNVL[Dap]KKYRS-OH; SMILES CC(C)C[C@H](NC(=O)[C@@H](NC(=O)[C@H](CC(N)=O)NC(=O)[C@H](CO)NC(=O)[C@H](CO)NC(=O)[C@H](CC(=O)O)NC(=O)[C@H](CC(=O)O)NC(=O)[C@H](Cc1ccccc1)NC(=O)[C@H](Cc1ccc(O)cc1)NC(=O)[C@@H](N)CC(=O)O)C(C)C)C(=O)N[C@@H](CN)C(=O)N[C@@H](CCCCN)C(=O)N[C@@H](CCCCN)C(=O)N[C@@H](Cc1ccc(O)cc1)C(=O)N[C@@H](CCCNC(=N)N)C(=O)N[C@@H](CO)C(=O)O) [compound 2]
Percent inhibition of D-glucose-induced EMT (100 uM peptide): 167%
Percent inhibition of D-glucose-induced EMT (200 uM peptide): 96%

8 (H-CYYDNSSSVLCKKYRS-OH; disulfide 1-11; SMILES CC(C)C[C@@H]1NC(=O)[C@H](C(C)C)NC(=O)[C@H](CO)NC(=O)[C@H](CO)NC(=O)[C@H](CO)NC(=O)[C@H](CC(N)=O)NC(=O)[C@H](CC(=O)O)NC(=O)[C@H](Cc2ccc(O)cc2)NC(=O)[C@H](Cc2ccc(O)cc2)NC(=O)[C@@H](N)CSSC[C@@H](C(=O)N[C@@H](CCCCN)C(=O)N[C@@H](CCCCN)C(=O)N[C@@H](Cc2ccc(O)cc2)C(=O)N[C@@H](CCCNC(=N)N)C(=O)N[C@@H](CO)C(=O)O)NC1=O) [compound 8]
Percent inhibition of D-glucose-induced EMT (100 uM peptide): 155%
Percent inhibition of D-glucose-induced EMT (200 uM peptide): 104%

11 (H-CYYDDSSSVLCKKYRS-OH; disulfide 1-11; SMILES CC(C)C[C@@H]1NC(=O)[C@H](C(C)C)NC(=O)[C@H](CO)NC(=O)[C@H](CO)NC(=O)[C@H](CO)NC(=O)[C@H](CC(=O)O)NC(=O)[C@H](CC(=O)O)NC(=O)[C@H](Cc2ccc(O)cc2)NC(=O)[C@H](Cc2ccc(O)cc2)NC(=O)[C@@H](N)CSSC[C@@H](C(=O)N[C@@H](CCCCN)C(=O)N[C@@H](CCCCN)C(=O)N[C@@H](Cc2ccc(O)cc2)C(=O)N[C@@H](CCCNC(=N)N)C(=O)N[C@@H](CO)C(=O)O)NC1=O) [compound 11]
Percent inhibition of D-glucose-induced EMT (200 uM peptide): −13%

6 (For-CYYDNSSSVLCKRYRS-OH; disulfide 1-11; SMILES CC(C)C[C@@H]1NC(=O)[C@H](C(C)C)NC(=O)[C@H](CO)NC(=O)[C@H](CO)NC(=O)[C@H](CO)NC(=O)[C@H](CC(N)=O)NC(=O)[C@H](CC(=O)O)NC(=O)[C@H](Cc2ccc(O)cc2)NC(=O)[C@H](Cc2ccc(O)cc2)NC(=O)[C@@H](NC=O)CSSC[C@@H](C(=O)N[C@@H](CCCCN)C(=O)N[C@@H](CCCNC(=N)N)C(=O)N[C@@H](Cc2ccc(O)cc2)C(=O)N[C@@H](CCCNC(=N)N)C(=O)N[C@@H](CO)C(=O)O)NC1=O) [compound 6]
Percent inhibition of D-glucose-induced EMT (100 uM peptide): 88%
Percent inhibition of D-glucose-induced EMT (200 uM peptide): 109%

3 (H-[Dap]YFDDSSNVLDKKYRS-OH; SMILES CC(C)C[C@H](NC(=O)[C@@H](NC(=O)[C@H](CC(N)=O)NC(=O)[C@H](CO)NC(=O)[C@H](CO)NC(=O)[C@H](CC(=O)O)NC(=O)[C@H](CC(=O)O)NC(=O)[C@H](Cc1ccccc1)NC(=O)[C@H](Cc1ccc(O)cc1)NC(=O)[C@@H](N)CN)C(C)C)C(=O)N[C@@H](CC(=O)O)C(=O)N[C@@H](CCCCN)C(=O)N[C@@H](CCCCN)C(=O)N[C@@H](Cc1ccc(O)cc1)C(=O)N[C@@H](CCCNC(=N)N)C(=O)N[C@@H](CO)C(=O)O) [compound 3]
Percent inhibition of D-glucose-induced EMT (100 uM peptide): 67%
Percent inhibition of D-glucose-induced EMT (200 uM peptide): 128%
